# Read-outs that look alike come from different tables or passages of the source.
# Legend:
# [1] = biological target: SARS-COV-2 M^pro-His6 (Severe acute respiratory syndrome coronavirus 2, UniProt P0DTD1); test: biochemical; assay type: biochemical; conditions: 25 nM enzyme, 15 μM fluorescent peptide, Morrison equation; Inactive = less than 50% inhibition at 25 μM compound; read-out: M^pro-His Ki
# [2] = biological target: SARS-COV-2 M^pro (authentic N- and C-termini) (Severe acute respiratory syndrome coronavirus 2, UniProt P0DTD1); test: biochemical; assay type: biochemical
# [3] = biological target: T1, HOVPro-Gi.1 (Norovirus, UniProt Q83883); test: Thermal shift, HOVPro-Gi.1; assay type: binding
# T1 construct: HOVPro-Gi.1
# [4] = system: HOVPro-Gii.4; test: Thermal shift, HOVPro-Gii.4; assay type: binding
# [5] = biological target: T2, human thrombin (Homo sapiens, UniProt P00734); test: Thrombin fluorescence assay; assay type: biochemical; conditions: fluorescence assay
# T2 construct: purchased Sigma-Aldrich MAK243
# [6] = biological target: T3, Human Cathepsin B (Homo sapiens, UniProt P07858); test: Cathepsin B assay; assay type: biochemical
# T3 construct: purchased BPS Bioscience 79590
# Experimental: A kit from BPS Bioscience (#79590) was used with adjustments to the manufacturer's protocol as follows: The activated enzyme was diluted 250-fold just before use, and the reaction was run at RT in black 96 half-area plates in a total reaction volume of 50 uL containing 0.01% Tween-20. Instead of measuring endpoints at 60 min the increase in fluorescence (Ex 360 nm, Em 460 nm) per second (RFU/s) was obtained from linear progress curves over 10 min. Fractional activities were calculated from reactions with no inhibitors. E-64 was used as a positive control.
# [7] = biological target: T4, renin (Homo sapiens, UniProt P00797); test: Renin assay; assay type: biochemical; conditions: read-out: estimated Kiapp, renin
# T4 construct: purchased BPS Bioscience 80211
# T4 sequence (P00797 67-406): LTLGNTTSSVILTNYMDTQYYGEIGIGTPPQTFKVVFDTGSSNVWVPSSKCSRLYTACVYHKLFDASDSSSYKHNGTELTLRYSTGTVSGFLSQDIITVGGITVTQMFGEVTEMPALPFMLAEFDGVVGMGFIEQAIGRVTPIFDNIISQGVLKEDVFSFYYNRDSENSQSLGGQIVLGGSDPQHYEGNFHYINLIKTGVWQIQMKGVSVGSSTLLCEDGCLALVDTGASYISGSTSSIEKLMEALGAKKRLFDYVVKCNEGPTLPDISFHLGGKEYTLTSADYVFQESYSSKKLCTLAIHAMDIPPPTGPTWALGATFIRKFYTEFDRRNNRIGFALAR
# Experimental: A kit from BPS Bioscience (#80211) was used with adjustments to the manufacturer's protocol as follows: The reaction was run at RT in black 96 half-area plates in a total reaction volume of 50 uL containing 0.01% Tween-20. Instead of measuring endpoints at 30 min the increase in fluorescence (Ex 490 nm, Em 520 nm) per second (RFU/s) was obtained from linear progress curves over 10 min. Fractional activities were calculated from reactions with no inhibitors. Aliskiren was used as a positive control.
# [8] = Metabolic stability in mouse liver microsomes; assay type: in vitro ADME
# In short: (§1)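 Mouse or human liver microsomal incubations sampled in duplicate at 0, 30 and 60 min, quenched with equal volume ice-cold methanol. Supernatant analysed by UHPLC-Orbitrap MS, C18 column at 40° C, positive ESI, m/z 80–1,200.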
# [9] = Metabolic stability in human liver microsomes; assay type: in vitro ADME
# In short: as §1
# [10] = Plasma stability assay, human plasma; assay type: in vitro ADME; conditions: 10 μM, 37° C., after 2 h incubation
# Experimental: (§2) Compound CDD-1713 and CDD-1976 were incubated in human and mouse plasma respectively at a concentration of 10 μM in duplicate (n=2) at 37° C. At time-points of 0, 30, 60 and 120 min, 15 μL of sample were taken out and the reactions terminated by adding 75 μL of ice-cold methanol. The reaction mixtures were then vortexed for 30 sec and centrifuged at rcf 15,000 for 15 min. Following centrifugation, 3 μL of the supernatant was analyzed using UHPLC-Q Exactive Orbitrap MS. The percentage of test compound remaining at the individual time points relative to the 0 min sample was then determined.
# [11] = Plasma stability assay, mouse plasma; assay type: in vitro ADME; conditions: 10 μM, 37° C., after 2 h incubation
# Experimental: as §2
# [12] = system: SARS-COV-2 (USA_WA1/2020 isolate) in VERO E6 cells; test: Real-Time Cell Analysis (RTCA) assay of SARS-COV-2 replication; assay type: cell-based; conditions: VERO E6 cells, 75 h
# [13] = system: 293T; test: 293T relative cell viability; conditions: day 3, 10 μM
# [14] = system: HepG2 cells; test: HepG2 cytotoxicity assay (XTT)
# [15] = Apparent solubility in PBS buffer; conditions: PBS buffer with 2% DMSO, aqueous buffer, kinetic from dmso stock
# T1 sequence (Q83883 1101-1281): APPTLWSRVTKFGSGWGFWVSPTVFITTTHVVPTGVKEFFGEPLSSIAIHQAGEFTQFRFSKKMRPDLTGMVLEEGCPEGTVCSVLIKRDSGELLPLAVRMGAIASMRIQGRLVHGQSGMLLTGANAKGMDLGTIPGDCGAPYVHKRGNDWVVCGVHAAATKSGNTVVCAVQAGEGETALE
structure (smiles),measurement,setting,value
"COc1cc(-c2cccc3[nH]ncc23)cc(C=O)c1OCC(=O)N(C)C [CDD-1713, 2-(2-formyl-4-(1H-indazol-4-yl)-6-methoxyphenoxy)-N,N-dimethylacetamide]",Ki,[1],0.0448 ± 0.0029 µM
same,Ki,"[2]; 25 nM enzyme, 15 μM fluorescent peptide, Morrison equation, Inactive = less than 50% inhibition at 25 μM compound, read-out: M^pro Ki",0.0648 ± 0.0049 µM
same,Ki,"[2]; Morrison equation, read-out: apparent Ki against M^pro",0.0648 µM
same,Ki,"[2]; Table 5, read-out: Ki,app",0.0648 µM
same,Ki,"[2]; read-out: Ki, app towards SARS-CoV-2 M^pro, athentic termini, authentic termini",0.0648 µM
same,ΔTm of HOVPro-Gi.1 at 50 μM compound conc.,[3],−0.09 °C
same,ΔTm of HOVPro-Gii.4 at 50 μM compound conc.,[4],−0.73 °C
same,Thrombin inhibition,[5],None
same,thrombin inhibition (in words),[5],No inhibition
same,"Human Cathepsin B, Fractional Remaining Activity",[6],0.97
same,Ki,[7],53 µM
same,MLM t1/2,[8]; Table 4,8.4 min
same,microsomal CLint at 2 μM,"[8]; mouse, liver microsomes",147 µL/min/mg
same,metabolic stability in mouse liver microsomes (in words),"[8]; mouse, microsomes",metabolically labile
same,HLM t1/2,[9]; Table 4,15.3 min
same,microsomal CLint at 2 μM,"[9]; human, liver microsomes",90.6 µL/min/mg
same,metabolic stability in human liver microsomes (in words),"[9]; human, microsomes",metabolically labile
same,compound remaining in human plasma,[10],80%
same,compound remaining in mouse plasma,[11],80%
same,IC50,"[12]; Severe acute respiratory syndrome coronavirus 2, Vero C1008, read-out: IC50, inhibition of SARS-COV-2 induced cell death (RTCA)",5.19 µM
same,prevention of SARS-COV-2 induced cell death (in words),[12],reduced cell death in a dose-dependent manner
same,293T day 3 relative cell viability (% inhibition at 10 μM),[13],None
same,cytotoxicity in HepG2 cells (in words),[14]; 100 μM,no obvious cytotoxicity
same,IC50,"[14]; Homo sapiens, HepG2, 24 h, read-out: HepG2 cell viability IC50",> 100 µM
same,solubility,[15],157 µM

# From patent US20250276955A1, “CORONAVIRUS MAIN PROTEASE INHIBITORS AND METHODS USING SAME” (Baylor College of Medicine, priority 2021, published 2025)
